We go through 29 compounds from patent publication US8563553B2, “Compounds and compositions as protein kinase inhibitors” (Novartis AG, priority 2009, dated 2013).

The test deals with b-Raf(V600E) (Homo sapiens (Human), UniProt P15056, V600E). Put plainly: Raf/Mek Amplified Luminescence Proximity Homogeneous Assay (Alpha Screen). The class given is biochemical. The conditions noted are these: b-Raf(V600E) approximately 4 pM; biotinylated Mek, kinase dead approximately 10 nM; ATP 10 μM; pre-incubation 60 minutes; reaction 3 hours at room temperature; read-out: mut-B-RAF IC50. The gist of the method:
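Raf pre-incubated with compound and kinase-dead biotinylated Mek (~10 nM) for 60 min, room temperature, in 50 mM Tris pH 7.5, 15 mM MgCl2, 0.01% BSA, 1 mM DTT; ATP-started reaction 1 or 3 h, EDTA stop. Phospho-MEK detected by anti-p-MEK1/2 AlphaScreen; IC50 by non-linear regression.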

Sequence of b-Raf(V600E) (P15056 whole entry V600E): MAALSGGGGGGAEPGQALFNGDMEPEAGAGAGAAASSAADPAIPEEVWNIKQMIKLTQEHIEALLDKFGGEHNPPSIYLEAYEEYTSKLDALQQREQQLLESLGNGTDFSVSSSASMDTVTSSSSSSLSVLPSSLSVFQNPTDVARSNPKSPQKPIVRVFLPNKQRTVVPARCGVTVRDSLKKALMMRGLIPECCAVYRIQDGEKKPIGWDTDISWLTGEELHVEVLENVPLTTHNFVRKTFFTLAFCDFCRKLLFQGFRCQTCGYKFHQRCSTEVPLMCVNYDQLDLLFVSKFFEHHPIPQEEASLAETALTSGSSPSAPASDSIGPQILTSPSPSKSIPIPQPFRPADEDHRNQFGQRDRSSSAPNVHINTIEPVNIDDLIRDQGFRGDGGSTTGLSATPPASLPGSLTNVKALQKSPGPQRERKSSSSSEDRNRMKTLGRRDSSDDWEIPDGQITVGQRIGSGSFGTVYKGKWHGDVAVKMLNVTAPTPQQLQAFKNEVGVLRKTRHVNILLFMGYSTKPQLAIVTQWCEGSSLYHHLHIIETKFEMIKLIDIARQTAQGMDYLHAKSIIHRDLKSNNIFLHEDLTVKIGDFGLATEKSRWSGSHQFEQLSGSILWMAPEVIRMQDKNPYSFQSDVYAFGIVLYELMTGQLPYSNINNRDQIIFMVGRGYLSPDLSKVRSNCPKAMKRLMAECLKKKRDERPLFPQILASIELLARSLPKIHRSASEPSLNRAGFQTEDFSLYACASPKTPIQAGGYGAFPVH

Broadly, the IC50 is the concentration that inhibits the measured activity by half. `COC(=O)N[C@@H](C)CNc1nccc(-c2nc(C3CC3)[nH]c2-c2cc(Cl)cc(NS(=O)(=O)CCC(F)(F)F)c2F)n1` [Example 1AA, (S)-Methyl 1-(4-(5-(5-chloro-2-fluoro-3-(3,3,3-trifluoropropylsulfonamido)phenyl)-2-cyclopropyl-1H-imidazol-4-yl)pyrimidin-2-ylamino)propan-2-ylcarbamate]: the IC50 was 0.6 nM.

Consider `COC(=O)N[C@@H](C)CNc1nccc(-c2nc(C3CC3)[nH]c2-c2cc(Cl)cc(NS(=O)(=O)c3ccc(F)cc3)c2F)n1` [Example 1AW], for which the IC50 worked out at 1 nM.

As for `COC(=O)N[C@@H](C)CNc1nccc(-c2[nH]c(C3CC3)nc2-c2cc(C)cc(NS(=O)(=O)C(C)C)c2)n1` [Example 4D, (S)-Methyl 1-(4-(2-cyclopropyl-4-(3-methyl-5-(1-methylethylsulfonamido)phenyl)-1H-imidazol-5-yl)pyrimidin-2-ylamino)propan-2-ylcarbamate], the IC50 came out at 0.96 nM.

For `CCCNc1nccc(-c2[nH]c(C3CC3)nc2-c2cc(F)cc(NS(C)(=O)=O)c2Cl)n1` [Example 1AP, N-(2-Chloro-3-(2-cyclopropyl-5-(2-(propylamino)pyrimidin-4-yl)-1H-imidazol-4-yl)-5-fluorophenyl)methanesulfonamide], the IC50 worked out at 5 nM.

With `COC(=O)N[C@@H](C)CNc1nccc(-c2[nH]c(C3CC3)nc2-c2cc(C)cc(NS(C)(=O)=O)c2Cl)n1` [Example 1AB, (S)-Methyl 1-(4-(4-(2-chloro-5-methyl-3-(methylsulfonamido)phenyl)-2-cyclopropyl-1H-imidazol-5-yl)pyrimidin-2-ylamino)propan-2-ylcarbamate], the IC50 was determined as 1.1 nM.

`Nc1nccc(-c2[nH]c(C3CC3)nc2-c2cccc(NS(=O)(=O)c3c(F)cccc3F)c2Cl)n1` [Example 2H, N-(3-(5-(2-aminopyrimidin-4-yl)-2-cyclopropyl-1H-imidazol-4-yl)-2-chlorophenyl)-2,6-difluorobenzenesulfonamide]: the IC50 was found to be 1 nM.

Consider `CCCS(=O)(=O)Nc1cc(F)cc(-c2nc(C3CC3)[nH]c2-c2ccncn2)c1Cl` [Example 2K, N-(2-Chloro-3-(2-cyclopropyl-5-(pyrimidin-4-yl)-1H-imidazol-4-yl)-5-fluorophenyl)propane-1-sulfonamide], for which the IC50 amounted to 4 nM.

Regarding `COC(=O)N[C@@H](C)CNc1nccc(-c2nc(C3(C)CC3)[nH]c2-c2cc(Cl)cc(NS(C)(=O)=O)c2F)n1` [Example 1AL], the IC50 is 1 nM.

Consider `COC(=O)N[C@@H](C)CNc1nccc(-c2nc(C3(C)CC3)[nH]c2-c2cc(C)cc(NS(C)(=O)=O)c2F)n1` [Example 1AM, (S)-Methyl 1-(4-(5-(2-fluoro-5-methyl-3-(methylsulfonamido)phenyl)-2-(1-methylcyclopropyl)-1H-imidazol-4-yl)pyrimidin-2-ylamino)propan-2-ylcarbamate], for which the IC50 was 1 nM.

Consider `COC(=O)N[C@@H](C)CNc1nccc(-c2[nH]c(C3CC3)nc2-c2cc(C)cc(NS(=O)(=O)CC(F)(F)F)c2F)n1` [Example 1BO, (S)-Methyl 1-(4-(2-cyclopropyl-4-(2-fluoro-5-methyl-3-(2,2,2-trifluoroethylsulfonamido)phenyl)-1H-imidazol-5-yl)pyrimidin-2-ylamino)propan-2-ylcarbamate], for which the IC50 stood at 0.25 nM.

On to `COC(=O)N[C@@H](C)CNc1nccc(-c2[nH]c(C(C)(C)C)nc2-c2cc(Cl)cc(NS(=O)(=O)C3CC3)c2)n1` [Example 1F, (S)-methyl 1-(4-(2-tert-butyl-4-(3-chloro-5-(cyclopropanesulfonamido)phenyl)-1H-imidazol-5-yl)pyrimidin-2-ylamino)propan-2-ylcarbamate], for which the IC50 was 0.1 nM.

Consider `CCS(=O)(=O)Nc1cc(F)cc(-c2nc(C3CC3)[nH]c2-c2ccnc(NC[C@H](C)NC(=O)OC)n2)c1Cl` [Example 1AD, (S)-Methyl 1-(4-(4-(2-chloro-3-(ethylsulfonamido)-5-fluorophenyl)-2-cyclopropyl-1H-imidazol-5-yl)pyrimidin-2-ylamino)propan-2-ylcarbamate], for which the half-inhibitory concentration (IC50) came to 0.43 nM.

As to `COC(=O)N[C@@H](C)CNc1nccc(-c2[nH]c(C(C)(C)C)nc2-c2cc(Cl)cc(NS(=O)(=O)CC(C)C)c2)n1` [Example 1G, (S)-methyl 1-(4-(2-tert-butyl-4-(3-chloro-5-(2-methylpropylsulfonamido)phenyl)-1H-imidazol-5-yl)pyrimidin-2-ylamino)propan-2-ylcarbamate], the IC50 stood at 0.3 nM.

For `C[C@H](O)CNc1nccc(-c2[nH]c(C3CC3)nc2-c2cccc(NS(C)(=O)=O)c2F)n1` [Example 3B, (S)—N-(3-(2-cyclopropyl-5-(2-(2-hydroxypropylamino)pyrimidin-4-yl)-1H-imidazol-4-yl)-2-fluorophenyl)methanesulfonamide], the concentration for half-maximal inhibition (IC50) came out at 28 nM.

As for `COC(=O)N[C@@H](C)CNc1nccc(-c2[nH]c(C3CCC3)nc2-c2cc(Cl)cc(NS(C)(=O)=O)c2F)n1` [Example 1BT, (S)-Methyl 1-(4-(4-(5-chloro-2-fluoro-3-(methylsulfonamido)phenyl)-2-cyclobutyl-1H-imidazol-5-yl)pyrimidin-2-ylamino)propan-2-ylcarbamate], the IC50 stood at 0.23 nM.

For the compound `COC(=O)N[C@@H](C)CNc1nccc(-c2[nH]c(C3CC3)nc2-c2cccc(NS(C)(=O)=O)c2Cl)n1` [Example 1T, (S)-Methyl 1-(4-(4-(2-chloro-3-(methylsulfonamido)phenyl)-2-cyclopropyl-1H-imidazol-5-yl)pyrimidin-2-ylamino)propan-2-ylcarbamate], the IC50 came to 0.47 nM.

As to `COC(=O)N[C@@H](C)CNc1nccc(-c2[nH]c(-c3ccc(F)cc3F)nc2-c2cc(F)cc(NS(C)(=O)=O)c2Cl)n1` [Example 1BY], the IC50 came out at 2040 nM.

On to `CC(C)(C)c1nc(-c2cc(F)cc(NS(=O)(=O)c3c(F)cccc3F)c2Cl)c(-c2ccnc(N)n2)[nH]1` [Example 1BP, N-(3-(5-(2-Aminopyrimidin-4-yl)-2-tert-butyl-1H-imidazol-4-yl)-2-chloro-5-fluorophenyl)-2,6-difluorobenzenesulfonamide], for which the IC50 amounted to 0.26 nM.

`CC(C#N)CNc1nccc(-c2[nH]c(C3CC3)nc2-c2cccc(NS(C)(=O)=O)c2Cl)n1` (centres unmarked) [Example 1AK, N-(2-Chloro-3-(5-(2-(2-cyanopropylamino)pyrimidin-4-yl)-2-cyclopropyl-1H-imidazol-4-yl)phenyl)methanesulfonamide]: the IC50 was 11 nM.

For `CCS(=O)(=O)Nc1cc(Cl)cc(-c2nc(C(C)(C)C)[nH]c2-c2ccnc(NC[C@H](C)NC(=O)OC)n2)c1F` [Example 1AJ, (S)-Methyl 1-(4-(2-tert-butyl-4-(5-chloro-3-(ethylsulfonamido)-2-fluorophenyl)-1H-imidazol-5-yl)pyrimidin-2-ylamino)propan-2-ylcarbamate], the IC50 came to 0.46 nM.

For the compound `CC(C)(C)c1nc(-c2cc(Cl)cc(NS(=O)(=O)c3c(F)cccc3F)c2F)c(-c2ccnc(N)n2)[nH]1` [Example 1BE, N-(3-(5-(2-Aminopyrimidin-4-yl)-2-tert-butyl-1H-imidazol-4-yl)-5-chloro-2-fluorophenyl)-2,6-difluorobenzenesulfonamide], the IC50 was found to be 0.13 nM.

`CCS(=O)(=O)Nc1cc(Cl)cc(-c2nc(C(C)(C)C)[nH]c2-c2ccnc(NC[C@H](C)NC(=O)OC)n2)c1` [Example 1I, (S)-Methyl 1-(4-(2-tert-butyl-4-(3-chloro-5-(ethylsulfonamido)phenyl)-1H-imidazol-5-yl)pyrimidin-2-ylamino)propan-2-ylcarbamate]: the IC50 is 0.1 nM.

As to `CCCS(=O)(=O)Nc1cccc(-c2nc(C3CC3)[nH]c2-c2ccnc(NC[C@H](C)NC(=O)OC)n2)c1` [Example 4J, (S)-Methyl 1-(4-(2-cyclopropyl-4-(3-(propylsulfonamido)phenyl)-1H-imidazol-5-yl)pyrimidin-2-ylamino)propan-2-ylcarbamate], the IC50 stood at 1 nM.

`COC(=O)N[C@@H](C)CNc1nccc(-c2[nH]c(C3CC3)nc2-c2cc(Cl)cc(NS(C)(=O)=O)c2F)n1` [Example 1A, (S)-methyl 1-(4-(4-(5-chloro-2-fluoro-3-(methylsulfonamido)phenyl)-2-cyclopropyl-1H-imidazol-5-yl)pyrimidin-2-ylamino)propan-2-ylcarbamate]: the IC50 was 0.2 nM.

On to `COC(=O)N[C@@H](C)CNc1nccc(-c2[nH]c(C(C)(C)C)nc2-c2cc(NS(=O)(=O)C(C)C)c(C)c(OC)c2)n1` [Example 1K, (S)-Methyl 1-(4-(2-tert-butyl-4-(3-methoxy-4-methyl-5-(1-methylethylsulfonamido)phenyl)-1H-imidazol-5-yl)pyrimidin-2-ylamino)propan-2-ylcarbamate], for which the IC50 is 189 nM.

Take `CCCS(=O)(=O)Nc1cc(F)cc(-c2nc(C3CC3)[nH]c2-c2ccnc(NC)n2)c1Cl` [Example 1BX, N-(2-Chloro-3-(2-cyclopropyl-5-(2-(methylamino)pyrimidin-4-yl)-1H-imidazol-4-yl)-5-fluorophenyl)propane-1-sulfonamide]: the IC50 was determined as 0.11 nM.

On to `CC(C)CNc1nccc(-c2[nH]c(C3CC3)nc2-c2cc(F)cc(NS(C)(=O)=O)c2Cl)n1` [Example 1AR, N-(2-Chloro-3-(2-cyclopropyl-5-(2-(isobutylamino)pyrimidin-4-yl)-1H-imidazol-4-yl)-5-fluorophenyl)methanesulfonamide], for which the IC50 was determined as 5 nM.

Consider `CC(C)Nc1nccc(-c2[nH]c(C3CC3)nc2-c2cc(F)cc(NS(C)(=O)=O)c2Cl)n1` [Example 1AT, N-(2-Chloro-3-(2-cyclopropyl-5-(2-(isopropylamino)pyrimidin-4-yl)-1H-imidazol-4-yl)-5-fluorophenyl)methanesulfonamide], for which the IC50 worked out at 25 nM.

Take `COC(=O)N[C@@H](C)CNc1nccc(-c2[nH]c(C(C)(C)C)nc2-c2cccc(NS(=O)(=O)C(C)C)c2F)n1` [Example 2D]: the IC50 amounted to 0.78 nM.
